Laboratory results taken from US20210346356A1, “INHIBITING UBIQUITIN SPECIFIC PEPTIDASE 9X” (FORMA THERAPEUTICS, INC., priority 2018, published 2021).

Legend:
SEB-restimulated PBMCs = test: IFNγ production in SEB-restimulated PBMCs (Example 1); type: cell-based, human; settings: FIG. 5 (Inhibitor 3 at 10 μM)
Description: The effect of USP9X inhibition on PBMCs that have been re-stimulated with SEB was also investigated. […] This is consistent with the notion that the SEB-restimulated T cells were in a state of exhaustion or rendered tolerant to SEB.

[1] = system: CD3/CD28 Activated T Cells; test: anti-CD3/CD28 T cell activation assay (Example 2); type: cell-based; settings: FIG. 6
Method: (§1) Given the reported role of ITCH and Cbl-b in T cell tolerance and as a negative regulator of T-cell receptor (TCR)/[…] 28 (CD28) signaling, the effects of USP9X inhibition were evaluated in a CD3/CD28 activation assay and in a mixed lymphocyte reaction (MLR) assay.

female BALB/c mice = test: SEB-induced peripheral tolerance in mice, spleen and splenocyte readouts (Example 7); type: in vivo
Method: Peripheral tolerance/inactivation was induced in female BALB/c mice by a single intraperitoneal injection of 30 μg SEB. Mice were treated with a positive control (anti-CTLA4) or various doses of USP9X Inhibitor 3. Spleens and splenocytes were harvested at 24 hr after the last dose. […] No changes in IL-2 and IFNγ levels were detected in the supernatants from SEB-restimulated splenocytes.

[2] = system: Human total T cells (CD3+); test: Human T cell activation with CD3/CD28 activator, IFNγ ELISA (Example 6); type: cell-based; settings: 4 days, two donors, FIGS. 11-12
Method: Human total T cells (CD3+) were isolated using EasySep™ immunomagnetic beads (Stemcell Technologies) from healthy human PBMCs (Hemacare). Cells were stained with Cell Trace Violet proliferation dye (Invitrogen), and treated with agent or DMSO. Cells were also stimulated with a CD3/CD28 activator (Stemcell Technologies). After 4 days of incubation, cells and supernatant were collected; cells were washed with staining buffer (PBS with 2% FBS) twice and centrifuged (350 g for 5 min). Cells were stained with LIVE/DEAD stain (Invitrogen), FITC-CD4 (BD Pharmingen) and CD8 (BD Pharmingen) in 100 μL volume for 30 mins at 4° C. Cells were washed twice as described above, resuspended in 100 μL staining buffer and analyzed using a BD Canto II (BD Biosciences). Data was analyzed using FlowJo V10 (FlowJo LLC). Secreted IFNγ was measured by ELISA (Dakewe Biotech Co., Ltd). All data were analyzed by Graphpad Prism 6.0 (GraphPad Software).

A375 melanoma cells = test: Allogeneic PBMC-mediated cytotoxicity of A375 melanoma cells, caspase 3/7 (Example 4); type: cell-based, human; settings: with SEB-stimulated PBMCs, FIG. 9A/9B
Method: A375 cells incubated alone, in the absence of SEB-stimulated PMBCs, with either compound had no significant effect on cellular apoptosis.

[3] = system: mixed lymphocyte reaction; test: mixed lymphocyte reaction (MLR) assay (Example 2); type: cell-based; settings: FIG. 7
Method: as §1

[4] = system: SEB-exhausted human PBMCs; test: cells; type: cell-based
[5] = highest dose group, 24 hr after last dose

Row | SMILES | IFNγ production following SEB-restimulation (SEB-restimulated PBMCs) | IFNγ production [1] | Spleen protein level of Cbl-b, reduction (female BALB/c mice; [5]) [%] | Spleen protein level of ITCH, reduction (female BALB/c mice; [5]) [%] | Spleen protein levels of Cbl-b and ITCH (female BALB/c mice; lower doses) | IL-2 and IFNγ levels in supernatants from SEB-restimulated splenocytes (female BALB/c mice; splenocytes harvested 24 hr after last dose) | IFNγ production [2] | A375 apoptosis (caspase 3/7 activity) (A375 melanoma cells) | IFNγ secretion in the MLR assay [3] | EC50 ([3]; Lymphocyte, read-out: EC50 for IFNγ secretion in the MLR assay) [nM] | IFNγ production compared to DMSO or negative control compound 5 [4] | EC50 ([4]; Homo sapiens, PBMC, 48 h, read-out: EC50 value for IFNγ secretion) [nM]
1 | CNC[C@H](C(=O)N1CC2=C(C1)CN(S(=O)(=O)c1ccc3c(c1)OCCO3)C2)c1cccc(Cl)c1 [USP9X Inhibitor 3, (2R)-2-(3-chlorophenyl)-1-[5-(2,3-dihydro-1,4-Benzodioxine-6-sulfonyl)-1H,2H,3H,4H,5H,6H-pyrrolo[3,4-c]pyrrol-2-yl]-3-(methylamino)propan-1-one] | restored IFNγ production to varying degrees depending on the donor | the most profound effect | 81 | 64 | no notable changes | No changes | increased | enhanced A375 apoptosis in a concentration-dependent manner | promoted IFNγ secretion | 100 to 1000 | significantly increase IFNγ production | 100 to 1000
2 | O=S(=O)(c1ccc(-c2ncco2)cc1)N1Cc2cnc(C(O)c3cccc(N4CCNCC4)c3)cc2C1 (stereo not shown) [USP9X Inhibitor 4, [2-[4-(1,3-oxazol-2-yl)benzenesulfonyl]-1H,2H,3H-pyrrolo[3,4-c]pyridin-6-yl][3-(piperazin-1-yl)phenyl] methanol] |  |  |  |  |  |  | increased |  |  |  |  | 
